Measured values reported in article PMC9457593, “Design, Synthesis, and Evaluation of New Mesenchymal–Epithelial Transition Factor (c-Met) Kinase Inhibitors with Dual Chiral Centers” (Molecules, 2022).
Several values for one entry are separate records, joined by “and”; a condition that tells them apart may be missing. Equal values may be shown once. Read-outs that look alike come from different tables or passages of the source. One block for each compound: values may come before it.

What was measured:
MHCC97H cells [1] = test system: MHCC97H cells; parameters: method as in PMID 29393886; conditions: compounds bearing a single chiral center, from our previous work; read-out: MHCC97H Cell IC50; cited from earlier work
MHCC97H cells [2] = assay: MTT antiproliferative assay; assay type: cell-based, human
Text: On the basis of our former study, compounds 12a-b were designed and first screened for their antiproliferative activity against the c-Met-driven human hepatocarcinoma cells (MHCC97H), using a standard MTT assay. Tepotinib was used as a positive control.

c-Met kinase = biological target: T1, c-Met kinase (Homo sapiens, UniProt P08581); assay: c-Met kinase inhibition assay (Mobility Shifting Assay); assay type: biochemical; conditions: mean ± SD of three independent experiments
T1 construct: purchased Carna Bioscience 08-151
Protocol: The kinase inhibition assay was carried out according to the principle of MSA (Mobility Shifting Assay) detection. […] Using triple dilution method, 10 gradient concentration groups were received. Varying concentrations of compounds were transported in 384-well plates, and 100% DMSO was set as negative control. After adding kinase buffer, the 384-well plates were centrifuged and vortexed, followed by 10 min of incubation. […] Finally, adding stop solution ended kinase reaction, and the conversion% was detected by a microplate reader (Caliper EZ Reader II, Perkin Elmer, Waltham, Massachusetts, […]). The statistics were analyzed by GraphPad Prism 8, using log (inhibitor) vs. response–variable slope to fit the dose–effect curve.

[3] = test system: HaCat (human immortalized keratinocytes); assay: Toxicity towards normal cells (HaCat); conditions: for IC50: Homo sapiens, HaCaT, read-out: IC50 on HaCat
MHCC97H cells [4] = assay: Cell cycle analysis (PI, flow cytometry); assay type: cell-based, human; conditions: 10 nM, 48 h
Protocol: MHCC97H cells were incubated with varying concentrations of compound (R, S)-12a or 1‰ DMSO for 48 h. The cells were collected by centrifugation, washed with PBS, and fixed in 70% ice-cold ethanol at 4 °C for 12 h. After the removal of ethanol, each sample was re-suspended in 500 μL of staining buffer containing 50 μL of RNase A and 450 μL of propidium iodide (KGA511, KeyGEN, BioTECH, Nanjing, Jiangsu, China) and incubated at room temperature, avoiding light exposure for 30 min. The DNA content of the cells was measured using a CytoFLXE flow cytometer (BECKMAN COLTER, Brea, CA, USA).

MHCC97H cells [5] = assay: Annexin V-FITC/PI apoptosis analysis (flow cytometry); assay type: cell-based, human; conditions: 48 h
Protocol: MHCC97H cells were incubated with varying concentrations of compound (R, S)-12a or diluent (1‰ DMSO, as a negative control) for 48 h. The cells were harvested and washed with PBS twice. Then, 500 μL of binding buffer suspended cells were added. The cells were stained with 5 μL of Annexin V-FITC and 10 μL of PI (KGA105, KeyGEN, BioTECH, Nanjing, Jiangsu, China). Then, the cells were incubated at room temperature for 15 min without light exposure. Apoptosis was analyzed using a CytoFLXE flow cytometer (BECKMAN COLTER, Brea, CA, USA).

[6] = test system: LO2 (human normal liver cells); assay: Toxicity towards normal cells (LO2); conditions: for IC50: Homo sapiens, read-out: IC50 on LO2
MHCC97H cells [7] = assay: Wound healing (cell scratch) assay; assay type: cell-based, human; conditions: 1, 2, and 3 nM; 0, 6, 12, and 24 h; vs vehicle control
Protocol: MHCC97H cells were seeded in a 6-well plate and cultured for 24 h; subsequently, the confluent monolayer cells were scratched with a 10 μL pipette tip. After that, the wound was washed with PBS thrice to remove the non-adherent cell debris. In addition, each petri dish had media containing (R, S)-12a in gradient concentrations (1, 2, and 3 nM) added. At 0, 6, 12, and 24 h, changes of cell scratch in area were photographed by phase contrast microscope and finally measured and analyzed by Image J.

MHCC97H cells [8] = assay: Hoechst 33342 staining for apoptosis morphology; assay type: cell-based, human; conditions: 1, 5, and 10 nM, 48 h, vs vehicle control
Text: Tumor cell apoptosis is an important stage in the effective treatment of cancer. To evaluate the capacity of compound (R, S)-12a to induce apoptosis in human cancer cell lines, we used Hoechst 33342 staining to investigate the effect of compound (R, S)-12a on MHCC97H cells. Hoechst 33342 staining was used to examine apoptosis through morphological observation.

AKT = assay: Immunofluorescence staining and Western blotting of AKT and p-AKT in MHCC97H cells; assay type: cell-based, human
Protocol: (§1) MHCC97H cells were seeded into confocal dishes and then treated with vehicle control (1‰ DMSO) and compound (R, S)-12a (2.5 nM). Cells were washed thrice with PBS, fixed with 4% paraformaldehyde for 15 min, and punched with 0.2% triton X100 and then blocked with 500 μL of blocking buffer at room temperature for 1 h. Cells were incubated with a primary monoclonal antibody (c-Met, p-c-Met, AKT, and p-AKT) at 4 °C for 12 h and then washed with PBS thrice, followed by incubation with the fluorescence secondary antibody (Alexa Fluor 488-labeled Goat Anti-Mouse IgG (H + L)-A0428) and labeling of nuclei by Hoechst33342 (MA0126, Meilunbio, Dalian, Liaoning, China). The cells were finally visualized by a confocal microscope (Carl Zessi Microscopy LSM 880, Oberkochen, Germany). The average fluorescence intensity of FITC channel was analyzed by Image J, and the illustration was drafted by GraphPad Prism8.
(§2) MHCC97H cells were then homogenized with lysis buffer. The protein concentrations were detected using a BCA Protein Assay Kit (Pierce BCA Protein Assay Kit 23227, Thermo, Waltham, MA, USA), and their extracts were reconstituted within loading buffer (Beyotime, Shanghai, China) and inactivated for 5 min at 100 °C. Subsequently, proteins (20 μg) were fractionated by 10% SDS-PAGE and transferred to PVDF membranes. Then, PVDF membranes were blocked in 10% skimmed milk and incubated with the appropriate dilution of primary antibodies, including c-Met (Abcam, Cambridge, UK), p-c-Met (Abcam), AKT (Cell Signaling Technology), p-AKT (Cell Signaling Technology), and GAPDH (Cell Signaling Technology, […], MA, USA). The above primary antibodies were then reacted with HRP-conjugated secondary antibody, and immunoreactive bands were visualized by an ECL Detection Reagent (36208ES60, Yeasen, Shanghai, China) and were estimated through densitometry with a chemiluminescence imaging system (Tanon, Shanghai, China). Intensities of the blots were quantified with Image J and analyzed by GraphPad Prism 8.

MHCC-97H tumor cells = assay: Tumor cell morphology; assay type: cell-based, human; conditions: 10 and 50 nM
Protocol: Co-incubation with compound (R, S)-12a (1, 10, and 50 nM) led to a significant reduction in […] cell viability. Red arrowheads indicated distinct morphological changes, such as intracytoplasmic particles increasing, the cell shape change, and loss of adherent property. […] Aggregation, lysis, and cell debris also occurred.

c-Met = assay: Immunofluorescence staining and Western blotting of c-Met and p-c-Met in MHCC97H cells; assay type: cell-based, human
Protocol: as §1, §2

[9] = MTT, 48 h, mean ± SD of three independent experiments, read-out: MHCC97H Cell IC50
[10] = immunofluorescence, 2.5 nM, 48 h

T1 sequence (P08581 956-1390 limits assumed): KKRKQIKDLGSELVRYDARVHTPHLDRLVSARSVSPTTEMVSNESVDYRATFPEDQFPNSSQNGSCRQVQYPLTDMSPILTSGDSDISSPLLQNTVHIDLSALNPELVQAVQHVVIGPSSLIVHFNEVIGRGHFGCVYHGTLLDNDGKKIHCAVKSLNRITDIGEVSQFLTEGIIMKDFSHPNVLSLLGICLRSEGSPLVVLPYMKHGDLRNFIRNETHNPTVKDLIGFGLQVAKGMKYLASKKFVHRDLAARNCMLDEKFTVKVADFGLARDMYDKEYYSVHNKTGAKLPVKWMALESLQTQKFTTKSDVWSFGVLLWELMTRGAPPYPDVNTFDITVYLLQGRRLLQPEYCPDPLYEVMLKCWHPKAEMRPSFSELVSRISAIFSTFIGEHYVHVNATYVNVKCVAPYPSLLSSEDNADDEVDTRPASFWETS

Compound: CC(c1cccc(-c2ncc(OCC3CCN(C)CC3)cn2)c1)n1nc(-c2cccc(C#N)c2)ccc1=O (racemic) [(±)-5b]
IC50 (MHCC97H cells [1]): 35.3 ± 11 nM

Compound: C[C@H](c1cccc(-c2ncc(OCC3CCN(C)CC3)cn2)c1)n1nc(-c2cccc(C#N)c2)ccc1=O [(R)-5b]
IC50 (MHCC97H cells [1]): 3.7 ± 1 nM

IC50 (c-Met kinase): 28.7 ± 5 nM
Compound: CC(Oc1cnc(-c2cccc(C(C)n3nc(-c4cccc(C#N)c4)ccc3=O)c2)nc1)C1CCN(C)CC1 [(R, R)-12a]
IC50 (MHCC97H cells [2]; [9]): 30 ± 8 nM

IC50 (c-Met kinase): 1.56 ± 1 nM
Compound: CC(Oc1cnc(-c2cccc(C(C)n3nc(-c4cccc(C#N)c4)ccc3=O)c2)nc1)C1CCN(C)CC1 [(R, S)-12a]
Selectivity Index (HaCat vs MHCC-97H) [3]: 953.5
IC50 [3]: 1910 ± 250 nM
proportion of cells in the G1 phase (MHCC97H cells [4]): 70.99%
proportion of cells in the G2/M phases (MHCC97H cells [4]): 12.44%
IC50 (MHCC97H cells [2]; Homo sapiens, MHCC97H, Table 2, read-out: IC50 on MHCC-97H): 2 ± 2 nM
IC50 (MHCC97H cells [2]; [9]): 2.1 nM
proportions of early and late apoptosis cells (MHCC97H cells [5]; 1 nM): 8.9%
proportions of early and late apoptosis cells (MHCC97H cells [5]; 5 nM): 33.3%
Selectivity Index (LO2 vs MHCC-97H) [6]: 5750.0
IC50 [6]: 11.5 ± 1.53 µM
wound closure (MHCC97H cells [7]): significantly suppressed wound closure
nuclear morphology by Hoechst 33342 staining (MHCC97H cells [8]): obvious nucleolar pyknosis, DNA fragmentation, and chromatin condensation
phosphorylation level of AKT protein (AKT; Western blot, dose-dependent): decrease
fluorescence intensity of AKT (total AKT protein) (AKT; [10]): did not change significantly
fluorescence intensity of p-AKT (AKT; [10]): decreased significantly
tumor cell morphology (MHCC-97H tumor cells): the cells shrank and floated and no longer adhered to the wall
phosphorylation level of c-Met (c-Met; Western blot, dose-dependent): decrease
fluorescence intensity of c-Met (total c-Met protein) (c-Met; [10]): did not change significantly
fluorescence intensity of p-c-Met (c-Met; [10]): decreased significantly

Compound: C[C@@H](c1cccc(-c2ncc(OCC3CCN(C)CC3)cn2)c1)n1nc(-c2cccc(C#N)c2)ccc1=O [(S)-5b]
IC50 (MHCC97H cells [1]): 118 ± 56 nM

IC50 (c-Met kinase): 195 ± 73.2 nM
Compound: CC(Oc1cnc(-c2cccc(C(C)n3nc(-c4cccc(C#N)c4)ccc3=O)c2)nc1)C1CCN(C)CC1 [(S, R)-12a]
IC50 (MHCC97H cells [2]; [9]): 205 nM and 210 nM

IC50 (c-Met kinase): 35.8 ± 6.8 nM
Compound: CC(Oc1cnc(-c2cccc(C(C)n3nc(-c4cccc(C#N)c4)ccc3=O)c2)nc1)C1CCN(C)CC1 [(S, S)-12a]
IC50 (MHCC97H cells [2]; [9]): 48.3 nM and 48 nM

Compound: CN1CCC(COc2cnc(-c3cccc(Cn4nc(-c5cccc(C#N)c5)ccc4=O)c3)nc2)CC1 [Tepotinib, tepotinib, reference compound]
IC50 [3]: 1950 ± 349 nM
IC50 (MHCC97H cells [2]; Homo sapiens, MHCC97H, 48 h, read-out: MHCC97H Cell IC50): 13 ± 2 nM
IC50 (MHCC97H cells [2]; Homo sapiens, MHCC97H, read-out: IC50 on MHCC-97H): 13 ± 2 nM
IC50 [6]: 8.73 ± 0.841 µM

Compound: (R,R)-3-(1-(1-(3-(5-(1-((1-Methyl-1,2,3,6-tetrahydropyridin-4-yl)oxy)ethyl)pyrimidin-2-yl)phenyl)ethyl)-6-oxo-1,6-dihydropyridazin-3-yl)benzonitrile [(R, R)-12b]
IC50 (MHCC97H cells [2]; [9]): 130 ± 38 nM

Compound: (R,S)-3-(1-(1-(3-(5-(1-((1-Methyl-1,2,3,6-tetrahydropyridin-4-yl)oxy)ethyl)pyrimidin-2-yl)phenyl)ethyl)-6-oxo-1,6-dihydropyridazin-3-yl)benzonitrile [(R, S)-12b]
IC50 (MHCC97H cells [2]; [9]): 9 ± 5 nM

Compound: (S,R)-3-(1-(1-(3-(5-(1-((1-Methyl-1,2,3,6-tetrahydropyridin-4-yl)oxy)ethyl)pyrimidin-2-yl)phenyl)ethyl)-6-oxo-1,6-dihydropyridazin-3-yl)benzonitrile [(S, R)-12b]
IC50 (MHCC97H cells [2]; [9]): 616 ± 78.2 nM

Compound: (S,S)-3-(1-(1-(3-(5-(1-((1-Methyl-1,2,3,6-tetrahydropyridin-4-yl)oxy)ethyl)pyrimidin-2-yl)phenyl)ethyl)-6-oxo-1,6-dihydropyridazin-3-yl)benzonitrile [(S, S)-12b]
IC50 (MHCC97H cells [2]; [9]): 136 ± 52 nM
